Laboratory results reported in patent US20040162428A1, “6-(2,6-difluorophenyl)-triazolopyrimidines as fungicides” (priority 2001, published 2004).

Test system: Botrytis cinerea
Assay: Comparison trial: control of gray mould (Botrytis cinerea) on fruit slices of green pepper
Assay type: in vivo
Details: green pepper fruit slices sprayed with 500 ppm, inoculated after 2 hours, incubated four days at 18-20° C.; untreated infected to 100%
Excerpt: The active compounds, separately or together, were formulated as a 10% emulsion in a mixture of 70% by weight of cyclohexanone, 20% by weight of Nekanil® LN (Lutensol® AP6, wetting agent having emulsifying and dispersant action based on ethoxylated alkylphenols) and 10% by weight of Wettol® EM (nonionic emulsifier based on ethoxylated castor oil) and diluted with water to the desired concentration. Comparison trial—Control of gray mould (Botrytis cinerea) on fruit slices of green pepper Fruit slices of green pepper were sprayed to run-off with an aqueous suspension, containing the concentration of active ingredient or their mixture mentioned in the table below, prepared from a stock solution containing 10% of the active ingredient; 85% cyclohexanone and 5% emulsifier. After 2 hours the sprayed-on layer had dried, the disks were inoculated with a spore suspension of Botrytis cinerea containing 1,7×10^6 spores per ml in 2 wt. % aqueous biomalt solution. The infected fruit slices were then incubated in chambers with high humidity for four days at 18-20° C. The fruit slice area under fungal attack was then assessed visually in percent.

Row | SMILES | infection (fruit slice area under fungal attack in percent)
1 | Fc1cccc(F)c1-c1c(Cl)nc2ncnn2c1NCC(F)(F)F [A] | 100%
2 | CC(Nc1c(-c2c(F)cccc2F)c(Cl)nc2ncnn12)C(F)(F)F (centres unmarked) [B] | 20%
